According to the supplement of paper PMC10307832:

Assays:
Experiment in all cases: relative viability (nuclei count vs DMSO), 5 days (fraction); higher = more cells survive
BGJ398 + Vorinostat = compound: CCN1CCN(c2ccc(Nc3cc(N(C)C(=O)Nc4c(Cl)c(OC)cc(OC)c4Cl)ncn3)cc2)CC1 [BGJ398] + O=C(CCCCCCC(=O)Nc1ccccc1)NO [Vorinostat] (partner 1 µM)
In short: (§1)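 Lung cancer cell lines in 1536-well plates got either a single drug or a fixed anchor-drug dose together with five library-drug doses (not always all listed) in √10 steps, by pin tool, on the day after seeding. Nuclei were counted after 5 days, and relative viability is the treated-to-vehicle ratio of nuclei counts. Values are medians of duplicate plates.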

[1] = compound: C1=CC2=NC=CN=C2C=C1/C=C/3\C(=O)NC(=O)S3 + N=C(N)NC(=N)NCCc1ccccc1 [Phenformin] (partner 250 µM)
In short: as §1

BGJ398 + Lapatinib = compound: CCN1CCN(c2ccc(Nc3cc(N(C)C(=O)Nc4c(Cl)c(OC)cc(OC)c4Cl)ncn3)cc2)CC1 [BGJ398] + CS(=O)(=O)CCNCc1ccc(-c2ccc3ncnc(Nc4ccc(OCc5cccc(F)c5)c(Cl)c4)c3c2)o1 [Lapatinib] (partner 2 µM)
In short: as §1

[2] = compound: C1=CC2=NC=CN=C2C=C1/C=C/3\C(=O)NC(=O)S3 + O=C(CCCCCCC(=O)Nc1ccccc1)NO [Vorinostat] (partner 1 µM)
In short: as §1

Row | Cell Line | relative viability (BGJ398 + Vorinostat; first compound 0.01 µM) | relative viability (BGJ398 + Vorinostat; first compound 0.03162 µM) | relative viability (BGJ398 + Vorinostat; first compound 0.1 µM) | relative viability (BGJ398 + Vorinostat; first compound 0.3162 µM) | relative viability (BGJ398 + Vorinostat; first compound 1 µM) | relative viability ([1]; first compound 0.02 µM) | relative viability ([1]; first compound 0.06325 µM) | relative viability ([1]; first compound 0.2 µM) | relative viability ([1]; first compound 0.6325 µM) | relative viability ([1]; first compound 2 µM) | relative viability (BGJ398 + Lapatinib; first compound 0.01 µM) | relative viability (BGJ398 + Lapatinib; first compound 0.1 µM) | relative viability (BGJ398 + Lapatinib; first compound 0.3162 µM) | relative viability (BGJ398 + Lapatinib; first compound 1 µM) | relative viability ([2]; first compound 0.02 µM) | relative viability ([2]; first compound 0.06325 µM) | relative viability ([2]; first compound 0.2 µM) | relative viability ([2]; first compound 0.6325 µM) | relative viability ([2]; first compound 2 µM) | relative viability (BGJ398 + Lapatinib; first compound 0.03162 µM)
1 | NCI-H1793 | 0.767 | 0.574 | 0.728 | 0.515 | 0.421 | 0.416 | 0.32 | 0.452 | 0.334 | 0.322 | 0.652 | 0.564 | 0.402 | 0.427 | 0.635 | 0.616 | 0.765 | 0.676 | 0.679 | –
2 | NCI-H2023 | 0.673 | 0.683 | 0.715 | 0.664 | 0.54 | 0.441 | 0.452 | 0.438 | 0.426 | 0.329 | 0.766 | 0.743 | 0.894 | 0.742 | 0.675 | 0.51 | 0.739 | 0.632 | 0.441 | 0.872
3 | COR-L 105 | 0.656 | 0.727 | 0.879 | 0.828 | 0.931 | 0.46 | 0.43 | 0.494 | 0.5 | 0.413 | 0.379 | 0.329 | 0.386 | 0.382 | 0.694 | 0.872 | 0.697 | 0.605 | 0.835 | 0.303
4 | RERF-LC-KJ | 0.668 | 0.643 | 0.765 | 0.727 | 0.539 | 0.399 | 0.467 | 0.406 | 0.392 | 0.418 | 0.86 | 0.908 | 0.924 | 0.724 | 0.714 | 0.717 | 0.689 | 0.63 | 0.635 | 0.88
5 | LXF-289 | 0.746 | 0.666 | 0.769 | 0.608 | 0.73 | 0.491 | 0.501 | 0.535 | 0.526 | 0.478 | 0.827 | 0.817 | 0.77 | 0.7 | 0.778 | 0.576 | 0.73 | 0.778 | 0.852 | 0.85
6 | PC-14 | 0.722 | 0.121 | 0.818 | – | 0.78 | 0.718 | 0.719 | 0.641 | 0.649 | 0.452 | 0.282 | 0.352 | 0.251 | 0.31 | 0.799 | 0.713 | 1.01 | 0.689 | 0.571 | 0.255
7 | NCI-H650 | 0.414 | 0.427 | 0.543 | 0.464 | 0.411 | 0.453 | 0.487 | 0.527 | 0.448 | 0.348 | 0.809 | 0.837 | 0.841 | 0.597 | 0.465 | 0.377 | 0.434 | 0.42 | 0.254 | 0.906
8 | NCI-H1666 | 1.06 | 0.963 | 1.05 | 0.986 | 0.916 | 0.36 | 0.481 | 0.578 | 0.541 | 0.548 | 0.656 | 0.508 | 0.7 | 0.255 | 0.912 | 0.927 | 0.968 | 0.984 | 0.785 | 0.704
9 | NCI-H2085 | 0.741 | 0.751 | 0.863 | 0.832 | 0.815 | 0.747 | 0.721 | 0.716 | 0.671 | 0.65 | 0.744 | 0.802 | 0.677 | 0.663 | 0.729 | 0.716 | 0.799 | 0.781 | 0.748 | 0.784
10 | NCI-H1734 | 0.794 | 0.913 | 0.848 | 0.841 | 0.907 | 0.392 | 0.35 | 0.384 | 0.343 | 0.279 | 0.992 | 1.11 | 0.961 | 1.06 | 0.846 | – | 0.907 | 0.767 | 0.556 | 1.03
11 | NCI-H2126 | 0.768 | 0.787 | 0.861 | 0.775 | 0.765 | 0.503 | 0.581 | 0.567 | 0.534 | 0.339 | 0.808 | 0.764 | 0.785 | 0.678 | 0.666 | 0.825 | 0.843 | 0.801 | 0.462 | 0.765
12 | EMC-BAC-2 | 0.707 | 0.591 | 0.316 | 0.366 | 0.413 | 0.499 | 0.532 | 0.55 | 0.518 | 0.396 | 0.872 | 0.899 | 0.832 | 0.838 | 0.488 | 0.535 | 0.602 | 0.452 | 0.222 | 0.982
13 | NCI-H1993 | 0.968 | 0.93 | 0.703 | 0.691 | 0.892 | 0.492 | 0.529 | 0.513 | 0.557 | 0.599 | 0.8 | 0.87 | 0.935 | 0.746 | 0.734 | 0.843 | 1.08 | 0.767 | 0.008 | 0.825
14 | NCI-H520 | 0.637 | 0.563 | 0.503 | 0.269 | 0.332 | 0.635 | 0.728 | 0.601 | 0.464 | 0.644 | 0.747 | 0.661 | 0.339 | 0.281 | 0.879 | 0.834 | 0.645 | 0.802 | 0.677 | 0.722
15 | NCI-H647 | 0.471 | 0.549 | 0.482 | 0.51 | 0.626 | 0.587 | 0.56 | 0.591 | 0.384 | 0.437 | 1.03 | 1.21 | 0.949 | 1.06 | 0.545 | 0.898 | 0.485 | 0.546 | 0.494 | 1.11
